Experimental data published in ChEMBL document CHEMBL4823299, “Design, synthesis, and biological evaluation of N-(4-substituted)-3-phenylisoxazolo[5,4-d]pyrimidin-4-amine derivatives as apoptosis-inducing cytotoxic agents” (Bioorg Med Chem Lett, 2021).
The source made the active and inactive calls. The rule behind the calls is not given here.

Legend:
[1] = tested on: Panel NCI-60 (60 carcinoma cell lines); test: Cytotoxicity against human NCI60 cells by SRB assay; assay type: functional, cell-based
RPMI-8226 [2] = test: Growth inhibition of human RPMI-8226 cells; assay type: functional
SNB-75 [3] = test: Growth inhibition of human SNB75 cells; assay type: functional
BT-474 [4] = test: Induction of apoptosis in human BT-474 cells assessed as reduced number of viable cells at 0.25 to 1 uM by phase-contrast microscopy; assay type: functional, cell-based; conditions: dose 0.25-1 µM
MDA-MB-435 [5] = test: Growth of human MDA-MB-435 cells relative to control
BT-474 [6] = test: Induction of mitochondrial membrane potential loss in human BT-474 cells assessed as polarised cells at 0.5 uM incubated for 24 hrs by […] staining based assay (reference value: 93.95%); assay type: functional
NCI-H460 [7] = test: Growth inhibition of human NCI-H460 cells; assay type: functional
BT-474 [8] = test: Inhibition of colony formation in human BT-474 cells by clonogenic assay; assay type: functional, cell-based
BT-474 [9] = test: Induction of apoptosis in human BT-474 cells assessed as viable cells at 1 uM incubated for 24 hrs by annexin-V/FITC-PI staining assay (reference value: 88.49%); assay type: functional; conditions: read-out: Activity
BT-474 [10] = test: Induction of apoptosis in human BT-474 cells assessed as late apoptotic cells at 1 uM incubated for 24 hrs by annexin-V/FITC-PI staining assay (reference value: 1.83%); assay type: functional
BT-474 [11] = test: Induction of apoptosis in human BT-474 cells assessed as necrotic cells at 1 uM incubated for 24 hrs by annexin-V/FITC-PI staining assay (reference value: 0.24%); assay type: functional
NCI-H460 [12] = test: Growth of human NCI-H460 cells relative to control
RPMI-8226 [13] = test: Growth of human RPMI-8226 cells relative to control
BT-474 [14] = test: Induction of apoptosis in human BT-474 cells assessed as fragmented nucleus by measuring bright clue colour at 0.25 to 1 uM incubated for 24 hrs by DAPI staining based fluorescence microscope assay; assay type: functional, cell-based; conditions: dose 0.25-1 µM
BT-474 [15] = test: Induction of apoptosis in human BT-474 cells assessed as horseshoe-shaped nuclei by measuring bright clue colour at 0.25 to 1 uM incubated for 24 hrs by DAPI staining based fluorescence microscope assay; assay type: functional, cell-based; conditions: dose 0.25-1 µM
BT-474 [16] = test: Induction of apoptosis in human BT-474 cells assessed as cell shrinkage at 0.25 to 1 uM by phase-contrast microscopy; assay type: functional, cell-based; conditions: dose 0.25-1 µM
MCF7 [17] = test: Growth of human MCF7 cells relative to control
HT-29 [18] = test: Growth inhibition of human HT-29 cells; assay type: functional
BT-474 [19] = test: Induction of mitochondrial membrane potential loss in human BT-474 cells assessed as polarised cells at 0.25 uM incubated for 24 hrs by […] staining based assay (reference value: 93.95%); assay type: functional
BT-474 [20] = test: Induction of apoptosis in human BT-474 cells assessed as late apoptotic cells at 0.5 uM incubated for 24 hrs by annexin-V/FITC-PI staining assay (reference value: 1.83%); assay type: functional
BT-474 [21] = test: Induction of apoptosis in human BT-474 cells assessed as early apoptotic cells at 1 uM incubated for 24 hrs by annexin-V/FITC-PI staining assay (reference value: 9.44%); assay type: functional
BT-474 [22] = test: Induction of mitochondrial membrane potential loss in human BT-474 cells assessed as depolarised cells at 1 uM incubated for 24 hrs by […] staining based assay (reference value: 4.18%); assay type: functional
MDA-MB-435 [23] = test: Growth inhibition of human MDA-MB-435 cells; assay type: functional
SNB-75 [24] = test: Growth of human SNB75 cells relative to control
BT-474 [25] = test: Induction of apoptosis in human BT-474 cells assessed as pyknotic and chromatin condensation by measuring bright clue colour at 0.25 to 1 uM incubated for 24 hrs by DAPI staining based fluorescence microscope assay; assay type: functional, cell-based; conditions: dose 0.25-1 µM
LOX IMVI [26] = test: Growth of human LOX IMVI cells relative to control
BT-474 [27] = test: Induction of mitochondrial membrane potential loss in human BT-474 cells assessed as depolarised cells at 0.25 uM incubated for 24 hrs by […] staining based assay (reference value: 4.18%); assay type: functional
BT-474 [28] = test: Induction of apoptosis in human BT-474 cells assessed as necrotic cells at 0.5 uM incubated for 24 hrs by annexin-V/FITC-PI staining assay (reference value: 0.24%); assay type: functional
BT-474 [29] = test: Induction of apoptosis in human BT-474 cells assessed as early apoptotic cells at 0.5 uM incubated for 24 hrs by annexin-V/FITC-PI staining assay (reference value: 9.44%); assay type: functional
BT-474 [30] = test: Induction of apoptosis in human BT-474 cells assessed as nuclear shrinkage by measuring bright clue colour at 0.25 to 1 uM incubated for 24 hrs by DAPI staining based fluorescence microscope assay; assay type: functional, cell-based; conditions: dose 0.25-1 µM
HCT-116 [31] = test: Growth of human HCT-116 cells relative to control
HT-29 [32] = test: Growth of human HT-29 cells relative to control
BT-474 [33] = test: Cytotoxicity against human BT-474 cells assessed as cell growth inhibition by MTT assay; assay type: functional, cell-based
K562 [34] = test: Growth inhibition of human K562 cells; assay type: functional
HCT-116 [35] = test: Growth inhibition of human HCT-116 cells; assay type: functional
BT-474 [36] = test: Induction of apoptosis in human BT-474 cells assessed as viable cells at 0.5 uM incubated for 24 hrs by annexin-V/FITC-PI staining assay (reference value: 88.49%); assay type: functional; conditions: read-out: Activity
BT-474 [37] = test: Induction of mitochondrial membrane potential loss in human BT-474 cells assessed as polarised cells at 1 uM incubated for 24 hrs by […] staining based assay (reference value: 93.95%); assay type: functional
MCF7 [38] = test: Growth inhibition of human MCF7 cells; assay type: functional
SR [39] = test: Growth of human SR cells relative to control
LOX IMVI [40] = test: Growth inhibition of human LOX IMVI cells; assay type: functional
K562 [41] = test: Growth of human K562 cells relative to control
KM12 [42] = test: Growth of human KM12 cells relative to control
BT-474 [43] = test: Induction of ROS production in human BT-474 cells assessed as increase in intracellular ROS level incubated for 24 hrs by DCF-DA staining based assay; assay type: functional, cell-based; conditions: dose 0.25-1 µM
KM12 [44] = test: Growth inhibition of human KM12 cells; assay type: functional
BT-474 [45] = test: Induction of mitochondrial membrane potential loss in human BT-474 cells assessed as depolarised cells at 0.5 uM incubated for 24 hrs by […] staining based assay (reference value: 4.18%); assay type: functional
SR [46] = test: Growth inhibition of human SR cells; assay type: functional
BT-474 [47] = test: Induction of apoptosis in human BT-474 cells assessed as cellular morphological changes at 0.25 to 1 uM incubated for 24 hrs by AO/EB staining assay; assay type: functional, cell-based; conditions: dose 0.25-1 µM
BT-474 [48] = test: Induction of apoptosis in human BT-474 cells assessed as […] at 0.25 to 1 uM by phase-contrast microscopy; assay type: functional, cell-based; conditions: dose 0.25-1 µM
[49] = read-out: LC50 (the source's name)

FC(F)(F)Oc1ccc(Oc2ccc(Nc3ncnc4onc(-c5ccccc5)c34)cc2)cc1
Activity [1]: Active

Brc1ccc(Oc2ccc(Nc3ncnc4onc(-c5ccccc5)c34)cc2)cc1
Activity [1]: Active

Fc1ccc(COc2ccc(Nc3ncnc4onc(-c5ccccc5)c34)cc2)cc1
Activity [1]: Active

c1ccc(-c2noc3ncnc(Nc4ccc(Oc5ccc6ccccc6c5)cc4)c23)cc1
Activity [1]: Active

COc1ccc(COc2ccc(Nc3ncnc4onc(-c5ccccc5)c34)cc2)cc1
Activity [1]: Active

O=C(O)CNc1ncnc2onc(-c3ccccc3)c12
Activity [1]: Active

Clc1ccc(COc2ccc(Nc3ncnc4onc(-c5ccccc5)c34)cc2)c(Cl)c1
Activity [1]: Active

Clc1cccc(Nc2ncnc3onc(-c4ccccc4)c23)c1
Activity [1]: Active

c1ccc(Oc2ccc(Nc3ncnc4onc(-c5ccccc5)c34)cc2)cc1
Activity [1]: Active

Fc1cccc(COc2ccc(Nc3ncnc4onc(-c5ccccc5)c34)cc2)c1
GI50 (RPMI-8226 [2]): 58 nM | TGI (RPMI-8226 [2]): > 100000 nM | CC50 (RPMI-8226 [2]; [49]): > 100000 nM | GI50 (SNB-75 [3]): 26 nM | TGI (SNB-75 [3]): 386 nM | CC50 (SNB-75 [3]; [49]): > 100000 nM | Activity (BT-474 [4]): Active | growth, % of control (MDA-MB-435 [5]): -54.67% | Activity (BT-474 [6]): 78.84% | GI50 (NCI-H460 [7]): 50 nM | TGI (NCI-H460 [7]): 28400 nM | CC50 (NCI-H460 [7]; [49]): > 100000 nM | Activity (BT-474 [8]): Dose-Dependent Effect | viability at 1 µM (BT-474 [9]): 63.3% | Activity (BT-474 [10]): 7.19% | Activity (BT-474 [11]): 1.55% | growth, % of control (NCI-H460 [12]): 2.61% | growth, % of control (RPMI-8226 [13]): 12.49% | Activity (BT-474 [14]): Active | Activity (BT-474 [15]): Active | Activity (BT-474 [16]): Active | growth, % of control (MCF7 [17]): 14.05% | GI50 (HT-29 [18]): 53 nM | TGI (HT-29 [18]): 11600 nM | CC50 (HT-29 [18]; [49]): > 100000 nM | Activity (BT-474 [19]): 92.79% | Activity (BT-474 [20]): 6.9% | Activity (BT-474 [21]): 27.93% | Activity (BT-474 [22]): 18.83% | GI50 (MDA-MB-435 [23]): 32 nM | growth, % of control (SNB-75 [24]): -34.93% | Activity (BT-474 [25]): Active | growth, % of control (LOX IMVI [26]): 23.07% | Activity (BT-474 [27]): 5.5% | Activity (BT-474 [28]): 1.06% | Activity (BT-474 [29]): 27.1% | Activity (BT-474 [30]): Active | growth, % of control (HCT-116 [31]): 8.15% | growth, % of control (HT-29 [32]): 3.86% | IC50 (BT-474 [33]): 640 nM | GI50 (K562 [34]): 95 nM | TGI (K562 [34]): > 100000 nM | CC50 (K562 [34]; [49]): > 100000 nM | GI50 (HCT-116 [35]): 58 nM | TGI (HCT-116 [35]): > 100000 nM | CC50 (HCT-116 [35]; [49]): > 100000 nM | viability at 0.5 µM (BT-474 [36]): 64.9% | Activity (BT-474 [37]): 75.08% | GI50 (MCF7 [38]): 37 nM | TGI (MCF7 [38]): > 100000 nM | CC50 (MCF7 [38]; [49]): > 100000 nM | growth, % of control (SR [39]): 26.06% | GI50 (LOX IMVI [40]): 949 nM | TGI (LOX IMVI [40]): > 100000 nM | CC50 (LOX IMVI [40]; [49]): > 100000 nM | growth, % of control (K562 [41]): 12.08% | growth, % of control (KM12 [42]): 9.57% | Activity (BT-474 [43]): Dose-Dependent Effect | Activity [1]: Active | GI50 (KM12 [44]): 80 nM | TGI (KM12 [44]): 14800 nM | CC50 (KM12 [44]; [49]): > 100000 nM | Activity (BT-474 [45]): 16.12% | GI50 (SR [46]): 67 nM | TGI (SR [46]): > 100000 nM | CC50 (SR [46]; [49]): > 100000 nM | Activity (BT-474 [47]): Active | Activity (BT-474 [48]): Active

Cc1cc(C)cc(Oc2ccc(Nc3ncnc4onc(-c5ccccc5)c34)cc2)c1
Activity [1]: Active

c1ccc(-c2noc3ncnc(Nc4ccc(Oc5cccc6ccccc56)cc4)c23)cc1
Activity [1]: Active

Clc1ccc(COc2ccc(Nc3ncnc4onc(-c5ccccc5)c34)cc2)cc1
Activity [1]: Active

c1ccc(Nc2ncnc3onc(-c4ccccc4)c23)cc1
Activity [1]: Active
